Patent US20140274683A1, “COMPOSITIONS AND METHODS FOR REPELLING POLLINATING INSECTS AND PROTECTING PLANTS AND CROPS AGAINST INSECTS AND/OR NEMATODES” (Bayer CropScience LP, priority 2013, published 2014)

Legend:
Honeybees = assay: Honeybee repulsion experiment at feeding stations with 50% sucrose; format: in vivo; details: 2% by weight in combination with 50% sucrose, feeding station
Experimental: FIG. 1 describes the feeding station arrangement (A and B) for the honeybee repulsion experiments described herein. As set forth in FIG. 1, panel (A) sets forth the bee cage positions on the left portion of panel (A) with the randomized feeding station positions on the right portion of panel (A). Panel (B) sets forth an alignment of the randomized feeding station positions with a distance of two meters between feeding stations. A total of eight feeding stations were evaluated at a ten meter distance in front of the respective bee hives. The feeding stations were placed two meters apart from one another.
Honeybees were trained to deep feeders (eight positions), each containing a 50% sucrose solution for one day. After the honeybees were trained to each feeder, the 50% sucrose feeder at randomized positions 1-8 was replaced with a shallow feeder containing a combination of repelling compounds and a 50% sucrose solution according to Table 5. In accordance with FIGS. 5 and 6, 2% by weight of Camphor oil (T4), Ajowan oil (T5), Camphor powder (T6), Rosemary oil (T7), and 2-Decanone (T8) in combination with a 50% sucrose treatment were added to feeders on day two.
Table 5 describes active agents evaluated for bee repulsion and their randomized feeding station positions. As described in Table 5, T1 (control), T2 (control), T3 (control), T4 (Camphor oil), T5 (Ajowan oil), T6 (Camphor powder), T7 (Rosemary oil), and T8 (2-Decanone).
FIG. 5 evaluates the number of bees visiting a respective feed station over a time interval. FIG. 6 sets forth the mean number of honeybees visiting feeding station over a period of four hours.

[1] = Stability test of Poncho 600 combined with α-terpineol, clothianidin content by HPLC; format: physicochemical; details: combined with alpha-terpineol, up to 54° C. for eight days
Experimental: Table 7 describes a stability test with a combination of α-terpineol and Poncho 600 evaluated at room temperature, 40° C., and 54° C. at zero time, 2 days, and 8 days as confirmed by HPLC.

[2] = Stability test of Poncho combined with Eugenol, clothianidin content by HPLC; format: physicochemical; details: up to 54° C. for seven days
Experimental: Table 6 describes a stability test with a combination of Eugenol and Poncho evaluated at room temperature, 40° C., and 54° C. at zero time, 3 days, and 7 days as confirmed by high performance liquid chromatography (HPLC).

| Compound | Honeybee repellency over the 4 hour assessment period (Honeybees; 4 hour assessment period) | Honeybee repellency at 24 hours (Honeybees) | Honeybee repellency at 24 hours (Honeybees; listed as 2-decanone) | Chemical stability of clothianidin content in Poncho [1] | Chemical stability of clothianidin content in Poncho [2] |
| --- | --- | --- | --- | --- | --- |
| CCCCCCCCC(C)=O [Compound 2-Decanone, 2-decanone] | highly repellent | exhibited repellency | still repellent | – | – |
| CN/C(=N\[N+](=O)[O-])NCc1cnc(Cl)s1 [clothianidin] | – | – | – | exhibited chemical stability | exhibited chemical stability |
